Broadly, the IC50 is the concentration needed to halve the response being measured.

This experiment deals with USP30 (Homo sapiens (Human), UniProt Q70CQ3). Kind of experiment: USP30 biochemical FP (fluorescence polarisation) IC50 assay. To be noted: USP30 biochemical FP or FI IC50 assay (table does not say which per compound); read-out: IC50 range. The protocol: In Vitro USP30 FP Inhibition Assay
USP30 Biochemical IC50 Assay
Dilution plates were prepared at 21 times the final concentration (2100 μM for a final concentration of 100 μM) in 50% DMSO in a 96-well polypropylene V-bottom plate (Greiner #651201). A typical 8-point dilution series would be 100, 30, 10, 3, 1, 0.3, 0.1, 0.03 μM final. Reactions were performed in duplicate in black 384 well plates (small volume, Greiner 784076) in a final reaction volume of 21 μl. Either 1 μl of 50% DMSO or diluted compound was added to the plate. USP30 was diluted in reaction buffer (40 mM Tris, pH 7.5, 0.005% Tween 20, 0.5 mg/ml BSA, 5 mM beta-mercaptoethanol) to the equivalent of 0.05 μl/well and 10 μl of diluted USP30 was added to the compound. Enzyme and compound were incubated for 30 min at room temp. Reactions were initiated by the addition of 50 nM of TAMRA labelled peptide linked to ubiquitin via an iso-peptide bond as fluorescence polarisation substrate. Reactions were read immediately after addition of substrate and following a 2 hr incubation at room temperature. Readings were performed on a Pherastar Plus (BMG Labtech). λ Excitation 540 nm; λ Emission 590 nm.

Chain of USP30 (Q70CQ3 57-517): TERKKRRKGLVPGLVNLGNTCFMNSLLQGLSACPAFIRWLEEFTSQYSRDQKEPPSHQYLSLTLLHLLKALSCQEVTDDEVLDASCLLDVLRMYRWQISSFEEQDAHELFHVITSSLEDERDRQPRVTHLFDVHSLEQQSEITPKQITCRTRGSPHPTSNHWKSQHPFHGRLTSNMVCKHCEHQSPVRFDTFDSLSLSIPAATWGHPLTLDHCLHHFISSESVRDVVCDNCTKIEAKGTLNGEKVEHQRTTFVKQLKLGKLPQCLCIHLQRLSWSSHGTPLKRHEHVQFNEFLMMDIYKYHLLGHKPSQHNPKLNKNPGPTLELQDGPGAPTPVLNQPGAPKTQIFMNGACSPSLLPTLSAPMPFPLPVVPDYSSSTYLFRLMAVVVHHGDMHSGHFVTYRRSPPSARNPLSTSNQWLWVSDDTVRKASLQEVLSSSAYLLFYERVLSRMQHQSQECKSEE

As to `Cn1cc(-c2ccc3nc(C(=O)N[C@@H]4CCN(C#N)C4)c(F)n3c2)cn1` [Example 168, (R)-N-(1-cyanopyrrolidin-3-yl)-3-fluoro-6-(1-methyl-1H-pyrazol-4-yl)imidazo [1,2-a]pyridine-2-carboxamide], the half-inhibitory concentration (IC50) is 100 to 1000 nM.
Take “(R)-N-(1-cyanopyrrolidin- 3-yl)-2-fluoro-3-(1-methyl- 1H-pyrazol-yl)benzamide [Example 104]”: the IC50 lay in the range of 100 to 1000 nM.
In the case of `N#CN1C[C@H](NC(=O)c2ccc(-c3ccccc3)cc2)[C@@H](F)C1` (relative stereo) [Example 176, N-((trans)-1-cyano-4-fluoropyrrolidin-3-yl)-[1,1′-biphenyl]-4-carboxamide], the IC50 lay in the range of 100 to 1000 nM.
With `N#CN1CC[C@@H](NC(=O)c2cc(F)c(N3CCOCC3)cc2F)C1` [Example 144, (R)-N-(1-cyanopyrrolidin-3-yl)-2,5-difluoro-4-morpholinobenzamide], the IC50 was in the range of 100 to 1000 nM.
Take `Cc1noc(C)c1-c1ccc2cc(C(=O)N(C)[C@@H]3CCN(C#N)C3)[nH]c2c1` [Example 262, (R)-N-(1-cyanopyrrolidin-3-yl)-6-(3,5-dimethylisoxazol-4-yl)-N-methyl-1H-indole-2-carboxamide]: the IC50 is < 100 nM.
As to `N#CN1CC[C@@H](NC(=O)c2cc(-c3ccc(Cl)cc3)no2)C1` [Example 218, (R)-3-(4-chlorophenyl)-N-(1-cyanopyrrolidin-3-yl)isoxazole-5-carboxamide], the IC50 was < 100 nM.
For “N-((R)-1-cyanopyrrolidin- 3-yl)-((2S,6R)-2,6- dimethylmorpholino)-5- fluoroisonicotinamide [Example 140]”, the concentration for half-maximal inhibition (IC50) lay within 100 to 1000 nM.
Regarding `N#CN1CCC(NC(=O)Nc2ccc(-c3ccccc3)cc2)C1` (stereo not drawn) [Example 254, 1-([1,1′-biphenyl]-4-yl)-3-(1-cyanopyrrolidin-3-yl)urea], the 50% inhibitory concentration (IC50) is < 100 nM.
As for `Cn1cc(-c2ccc(C(=O)N[C@@H]3CCN(C#N)C3)c(F)c2F)cn1` [Example 131, (R)-N-(1-cyanopyrrolidin-3-yl)-2,3-difluoro-4-(1-methyl-1H-pyrazol-4-yl)benzamide], the figure is < 100 nM.

The values are drawn from US10689345B2, “1-cyano-pyrrolidine compounds as USP30 inhibitors” (Mission Therapeutics Limited, priority 2015, dated 2020).
